Reference: ChEMBL document CHEMBL1201862, “PubChem BioAssay data set” (2004)
The source made the active and inactive calls.

Columns and labels:
[1] = test system: Streptococcus sp. 'group A'; test: growth inhibition of control SK(-) GAS strain, dose response, counter-screen for streptokinase expression inhibitor project, luminescence, kanamycin, BacTiterGlo, confirmation (AID 1900); assay type: functional, organism-based
Streptokinase A = target: T1, Streptokinase A (Streptococcus pyogenes serotype M1, UniProt P10520); test: S. pyogenes streptokinase expression inhibitors, potency, dose response, plasminogen activation absorbance, OD405 (AID 1914); assay type: functional, Streptococcus pyogenes M1 GAS;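 note: secreted streptokinase activity via plasminogen activation per viability signal from cell pellet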
T1 sequence (P10520 whole entry): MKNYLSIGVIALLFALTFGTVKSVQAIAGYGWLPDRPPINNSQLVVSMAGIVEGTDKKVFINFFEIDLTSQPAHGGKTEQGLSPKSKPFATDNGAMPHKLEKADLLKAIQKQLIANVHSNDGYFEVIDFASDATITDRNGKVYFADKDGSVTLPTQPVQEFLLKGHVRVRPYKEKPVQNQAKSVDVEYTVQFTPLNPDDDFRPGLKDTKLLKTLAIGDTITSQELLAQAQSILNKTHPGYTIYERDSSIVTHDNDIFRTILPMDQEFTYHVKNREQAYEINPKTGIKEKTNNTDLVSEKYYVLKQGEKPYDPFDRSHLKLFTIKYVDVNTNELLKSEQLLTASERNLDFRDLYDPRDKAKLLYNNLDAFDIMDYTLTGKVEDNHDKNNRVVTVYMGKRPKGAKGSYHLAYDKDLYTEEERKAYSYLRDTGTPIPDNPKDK

Streptococcus = test: Group A Streptococcus viability loss, dose response, counter-screen for streptokinase expression inhibitor project, luminescence, BacTiterGlo (AID 1915); assay type: functional, organism-based;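 note: potency for reduction of bacterial viability or growth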
[2] = Luminescence Cell-Based Dose Retest to Confirm Inhibitors of Cancer Stem Cells. [Related pubchem assays (depositor defined):AID2717, AID2721]; assay type: functional; settings: Homo sapiens
[3] = inhibitors of PGC1a acetylation in cells, dose response, cell-based, cherry-picked samples (AID 720514); assay type: functional;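 note: potency may reflect raised or lowered acetylation signal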
Coagulation factor XII = target: T2, Coagulation factor XII (Homo sapiens, UniProt P00748); assay type: functional;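 note: activated factor XIIa alpha cleaving a fluorogenic AMC peptide substrate; inhibitor potency from loss of enzyme activity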
T2 sequence (P00748 whole entry): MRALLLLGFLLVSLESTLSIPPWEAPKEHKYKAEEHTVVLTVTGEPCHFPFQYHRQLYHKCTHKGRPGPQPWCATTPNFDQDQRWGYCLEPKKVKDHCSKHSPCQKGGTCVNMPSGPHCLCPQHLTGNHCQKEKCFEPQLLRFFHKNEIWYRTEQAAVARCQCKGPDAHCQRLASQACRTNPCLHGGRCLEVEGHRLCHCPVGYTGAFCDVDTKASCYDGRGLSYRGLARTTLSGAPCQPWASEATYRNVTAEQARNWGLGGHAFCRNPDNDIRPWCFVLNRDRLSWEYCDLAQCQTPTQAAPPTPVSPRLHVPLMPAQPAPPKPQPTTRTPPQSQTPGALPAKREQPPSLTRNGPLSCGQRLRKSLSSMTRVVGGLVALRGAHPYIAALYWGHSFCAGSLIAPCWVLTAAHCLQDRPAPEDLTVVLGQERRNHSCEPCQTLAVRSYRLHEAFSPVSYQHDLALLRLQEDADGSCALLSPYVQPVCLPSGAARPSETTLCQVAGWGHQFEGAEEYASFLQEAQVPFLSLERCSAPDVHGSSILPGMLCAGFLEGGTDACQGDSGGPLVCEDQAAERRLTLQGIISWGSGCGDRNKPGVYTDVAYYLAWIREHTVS

[4] = inhibitors of Vif binding to APOBEC3G peptide, primary screen, biochemical, TR-FRET, GST-Vif 1-94, biotin-A3G peptide, dose response retest (AID 1117319); assay type: functional;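 note: TR-FRET signal of purified GST-Vif binding a biotinylated A3G peptide; inhibitors lower the FRET signal by blocking Vif and A3G binding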
[5] = target: Voltage-dependent T-type calcium channel subunit alpha-1H (Homo sapiens, UniProt O95180); assay type: functional;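 note: channel activity triggered by adding a high calcium stimulation buffer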
Protein skinhead-1 = target: T3, Protein skinhead-1 (Caenorhabditis elegans, UniProt P34707); assay type: functional
T3 sequence (P34707 whole entry): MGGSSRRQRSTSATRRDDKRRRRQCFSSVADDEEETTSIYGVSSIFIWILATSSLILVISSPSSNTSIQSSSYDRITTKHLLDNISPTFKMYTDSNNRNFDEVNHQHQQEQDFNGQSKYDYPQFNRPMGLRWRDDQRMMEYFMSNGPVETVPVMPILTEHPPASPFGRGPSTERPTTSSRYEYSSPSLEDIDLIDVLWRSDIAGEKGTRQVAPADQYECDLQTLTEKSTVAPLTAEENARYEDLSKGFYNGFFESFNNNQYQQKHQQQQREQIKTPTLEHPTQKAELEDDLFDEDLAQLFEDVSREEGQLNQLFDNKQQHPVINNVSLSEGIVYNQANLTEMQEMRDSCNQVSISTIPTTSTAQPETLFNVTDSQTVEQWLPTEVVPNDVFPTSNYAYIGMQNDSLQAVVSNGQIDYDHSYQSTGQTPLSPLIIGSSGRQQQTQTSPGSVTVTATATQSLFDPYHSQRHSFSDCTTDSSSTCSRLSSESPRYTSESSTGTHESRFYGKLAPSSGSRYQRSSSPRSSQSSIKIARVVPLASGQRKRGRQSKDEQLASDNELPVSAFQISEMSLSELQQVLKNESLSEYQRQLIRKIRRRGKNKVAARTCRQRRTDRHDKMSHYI

[6] = HEK293T cytotoxicity, dose response, cytotoxicity control for miR-122 modulator project, cell-based, inhibitor set, cherry-pick, set 2 (AID 720697); assay type: functional
cells [7] = assay type: functional, cell-based
cells [8] = assay type: functional, cell-based; remark: listed apart in the source
[9] = target: T4, Mannose-6-phosphate isomerase (Homo sapiens, UniProt P34949); test: human PMI inhibitors, high substrate, primary screen, biochemical, fluorescence intensity, high mannose 6-phosphate (AID 1220)
T4 sequence (P34949 whole entry): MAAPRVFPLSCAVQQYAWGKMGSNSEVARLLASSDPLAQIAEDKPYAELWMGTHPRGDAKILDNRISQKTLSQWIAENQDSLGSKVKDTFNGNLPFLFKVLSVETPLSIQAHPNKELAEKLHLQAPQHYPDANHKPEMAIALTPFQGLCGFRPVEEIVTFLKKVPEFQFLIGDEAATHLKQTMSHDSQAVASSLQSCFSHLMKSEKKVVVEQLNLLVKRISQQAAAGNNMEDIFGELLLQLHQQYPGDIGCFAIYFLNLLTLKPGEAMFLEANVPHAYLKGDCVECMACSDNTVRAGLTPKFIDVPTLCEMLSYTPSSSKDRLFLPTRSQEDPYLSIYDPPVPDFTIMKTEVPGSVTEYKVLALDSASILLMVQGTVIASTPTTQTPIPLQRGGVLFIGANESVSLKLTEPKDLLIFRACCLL

[10] = target: Disintegrin and metalloproteinase domain-containing protein 17 (Homo sapiens, UniProt P78536); test: exosite inhibitors of ADAM17, dose response, biochemical (AID 743260)
[11] = ADAM10 protease inhibitors, dose response, selectivity assay for ADAM17 exosite inhibitor project, biochemical, FRET peptide substrate, recombinant human ADAM10 (AID 743259);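 note: ADAM10 enzyme cleaving a FRET peptide substrate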
cells [12] = assay type: functional
[13] = target: T5, Methionyl-tRNA synthetase, putative (Trypanosoma brucei brucei, UniProt Q38C91); assay type: functional, Trypanosoma brucei brucei strain 927/4 GUTat10.1
T5 sequence (Q38C91 whole entry): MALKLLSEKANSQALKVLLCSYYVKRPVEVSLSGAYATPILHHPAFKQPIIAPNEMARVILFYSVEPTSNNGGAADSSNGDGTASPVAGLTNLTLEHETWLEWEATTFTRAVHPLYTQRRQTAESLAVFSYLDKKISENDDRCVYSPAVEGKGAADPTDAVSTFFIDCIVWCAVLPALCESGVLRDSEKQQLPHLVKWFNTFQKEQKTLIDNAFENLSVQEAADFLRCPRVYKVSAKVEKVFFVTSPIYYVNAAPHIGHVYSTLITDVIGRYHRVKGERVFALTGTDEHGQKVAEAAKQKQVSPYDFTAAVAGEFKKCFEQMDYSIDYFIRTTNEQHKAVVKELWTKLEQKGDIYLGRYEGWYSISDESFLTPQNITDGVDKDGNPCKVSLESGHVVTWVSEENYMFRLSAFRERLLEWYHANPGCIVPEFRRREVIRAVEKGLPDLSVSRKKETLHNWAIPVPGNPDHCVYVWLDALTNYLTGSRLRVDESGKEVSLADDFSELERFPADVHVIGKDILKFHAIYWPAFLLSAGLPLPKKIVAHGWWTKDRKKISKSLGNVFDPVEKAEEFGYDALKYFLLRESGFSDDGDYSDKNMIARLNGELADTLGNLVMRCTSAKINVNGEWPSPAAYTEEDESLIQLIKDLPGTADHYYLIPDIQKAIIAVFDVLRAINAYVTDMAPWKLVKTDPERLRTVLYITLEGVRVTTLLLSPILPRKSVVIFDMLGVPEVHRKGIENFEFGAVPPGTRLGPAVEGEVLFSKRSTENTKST

[14] = Counterscreen for inhibitors of Trypanosoma brucei methionyl tRNA synthetase (MetRS): Luminescence-based cell-based high throughput dose response assay to identify compounds that are cytotoxic to Jurkat human T lymphocyte cells.; assay type: functional
[15] = target: T5, Methionyl-tRNA synthetase, putative; assay type: functional, Trypanosoma brucei brucei strain 927/4 GUTat10.1; remark: listed apart in the source
[16] = target: T6, Rac GTPase-activating protein 1 (Homo sapiens, UniProt Q9H0H5); test: MgcRacGAP GTPase-activating activity inhibitors, confirmation, biochemical, ADP Hunter fluorescence, primary and confirmatory (AID 624330); assay type: functional
T6 sequence (Q9H0H5 whole entry): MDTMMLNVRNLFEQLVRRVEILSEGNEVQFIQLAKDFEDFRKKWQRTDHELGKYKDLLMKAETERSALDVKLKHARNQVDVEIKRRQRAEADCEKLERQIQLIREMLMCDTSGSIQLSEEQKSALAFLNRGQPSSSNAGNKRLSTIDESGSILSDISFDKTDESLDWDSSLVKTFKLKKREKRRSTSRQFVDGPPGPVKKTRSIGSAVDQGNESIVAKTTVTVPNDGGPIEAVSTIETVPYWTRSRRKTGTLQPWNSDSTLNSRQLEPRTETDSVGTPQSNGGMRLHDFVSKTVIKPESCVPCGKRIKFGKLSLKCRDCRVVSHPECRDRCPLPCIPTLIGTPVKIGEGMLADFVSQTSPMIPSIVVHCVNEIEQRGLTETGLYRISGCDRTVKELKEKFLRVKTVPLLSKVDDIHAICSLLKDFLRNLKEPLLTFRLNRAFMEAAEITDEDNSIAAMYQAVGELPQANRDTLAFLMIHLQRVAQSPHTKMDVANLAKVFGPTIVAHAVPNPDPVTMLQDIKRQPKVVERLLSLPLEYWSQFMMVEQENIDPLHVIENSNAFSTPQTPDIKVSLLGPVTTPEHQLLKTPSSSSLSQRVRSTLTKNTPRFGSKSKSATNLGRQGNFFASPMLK

Sequence of Disintegrin and metalloproteinase domain-containing protein 17 (P78536 whole entry, the tested form may be a part): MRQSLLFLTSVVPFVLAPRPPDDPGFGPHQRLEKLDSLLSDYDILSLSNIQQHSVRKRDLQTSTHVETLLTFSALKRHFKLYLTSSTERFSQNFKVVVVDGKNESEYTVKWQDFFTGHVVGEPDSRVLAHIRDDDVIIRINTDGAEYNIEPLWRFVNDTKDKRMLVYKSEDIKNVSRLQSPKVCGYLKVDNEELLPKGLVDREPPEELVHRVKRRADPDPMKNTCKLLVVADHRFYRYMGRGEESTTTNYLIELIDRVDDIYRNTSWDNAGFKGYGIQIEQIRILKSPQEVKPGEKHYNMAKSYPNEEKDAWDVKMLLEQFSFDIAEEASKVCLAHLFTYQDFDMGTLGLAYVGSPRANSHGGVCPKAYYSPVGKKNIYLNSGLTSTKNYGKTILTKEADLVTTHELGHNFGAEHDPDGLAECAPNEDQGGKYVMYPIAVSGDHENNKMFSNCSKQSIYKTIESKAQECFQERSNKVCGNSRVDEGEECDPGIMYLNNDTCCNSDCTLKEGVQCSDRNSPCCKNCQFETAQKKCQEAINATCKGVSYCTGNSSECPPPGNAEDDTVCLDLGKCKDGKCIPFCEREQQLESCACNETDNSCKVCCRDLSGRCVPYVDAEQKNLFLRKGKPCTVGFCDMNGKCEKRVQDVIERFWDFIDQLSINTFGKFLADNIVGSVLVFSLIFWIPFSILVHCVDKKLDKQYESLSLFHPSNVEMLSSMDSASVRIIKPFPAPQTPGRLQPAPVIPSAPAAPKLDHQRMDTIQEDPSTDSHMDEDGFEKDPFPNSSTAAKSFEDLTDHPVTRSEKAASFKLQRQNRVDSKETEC
Sequence of Voltage-dependent T-type calcium channel subunit alpha-1H (O95180 whole entry): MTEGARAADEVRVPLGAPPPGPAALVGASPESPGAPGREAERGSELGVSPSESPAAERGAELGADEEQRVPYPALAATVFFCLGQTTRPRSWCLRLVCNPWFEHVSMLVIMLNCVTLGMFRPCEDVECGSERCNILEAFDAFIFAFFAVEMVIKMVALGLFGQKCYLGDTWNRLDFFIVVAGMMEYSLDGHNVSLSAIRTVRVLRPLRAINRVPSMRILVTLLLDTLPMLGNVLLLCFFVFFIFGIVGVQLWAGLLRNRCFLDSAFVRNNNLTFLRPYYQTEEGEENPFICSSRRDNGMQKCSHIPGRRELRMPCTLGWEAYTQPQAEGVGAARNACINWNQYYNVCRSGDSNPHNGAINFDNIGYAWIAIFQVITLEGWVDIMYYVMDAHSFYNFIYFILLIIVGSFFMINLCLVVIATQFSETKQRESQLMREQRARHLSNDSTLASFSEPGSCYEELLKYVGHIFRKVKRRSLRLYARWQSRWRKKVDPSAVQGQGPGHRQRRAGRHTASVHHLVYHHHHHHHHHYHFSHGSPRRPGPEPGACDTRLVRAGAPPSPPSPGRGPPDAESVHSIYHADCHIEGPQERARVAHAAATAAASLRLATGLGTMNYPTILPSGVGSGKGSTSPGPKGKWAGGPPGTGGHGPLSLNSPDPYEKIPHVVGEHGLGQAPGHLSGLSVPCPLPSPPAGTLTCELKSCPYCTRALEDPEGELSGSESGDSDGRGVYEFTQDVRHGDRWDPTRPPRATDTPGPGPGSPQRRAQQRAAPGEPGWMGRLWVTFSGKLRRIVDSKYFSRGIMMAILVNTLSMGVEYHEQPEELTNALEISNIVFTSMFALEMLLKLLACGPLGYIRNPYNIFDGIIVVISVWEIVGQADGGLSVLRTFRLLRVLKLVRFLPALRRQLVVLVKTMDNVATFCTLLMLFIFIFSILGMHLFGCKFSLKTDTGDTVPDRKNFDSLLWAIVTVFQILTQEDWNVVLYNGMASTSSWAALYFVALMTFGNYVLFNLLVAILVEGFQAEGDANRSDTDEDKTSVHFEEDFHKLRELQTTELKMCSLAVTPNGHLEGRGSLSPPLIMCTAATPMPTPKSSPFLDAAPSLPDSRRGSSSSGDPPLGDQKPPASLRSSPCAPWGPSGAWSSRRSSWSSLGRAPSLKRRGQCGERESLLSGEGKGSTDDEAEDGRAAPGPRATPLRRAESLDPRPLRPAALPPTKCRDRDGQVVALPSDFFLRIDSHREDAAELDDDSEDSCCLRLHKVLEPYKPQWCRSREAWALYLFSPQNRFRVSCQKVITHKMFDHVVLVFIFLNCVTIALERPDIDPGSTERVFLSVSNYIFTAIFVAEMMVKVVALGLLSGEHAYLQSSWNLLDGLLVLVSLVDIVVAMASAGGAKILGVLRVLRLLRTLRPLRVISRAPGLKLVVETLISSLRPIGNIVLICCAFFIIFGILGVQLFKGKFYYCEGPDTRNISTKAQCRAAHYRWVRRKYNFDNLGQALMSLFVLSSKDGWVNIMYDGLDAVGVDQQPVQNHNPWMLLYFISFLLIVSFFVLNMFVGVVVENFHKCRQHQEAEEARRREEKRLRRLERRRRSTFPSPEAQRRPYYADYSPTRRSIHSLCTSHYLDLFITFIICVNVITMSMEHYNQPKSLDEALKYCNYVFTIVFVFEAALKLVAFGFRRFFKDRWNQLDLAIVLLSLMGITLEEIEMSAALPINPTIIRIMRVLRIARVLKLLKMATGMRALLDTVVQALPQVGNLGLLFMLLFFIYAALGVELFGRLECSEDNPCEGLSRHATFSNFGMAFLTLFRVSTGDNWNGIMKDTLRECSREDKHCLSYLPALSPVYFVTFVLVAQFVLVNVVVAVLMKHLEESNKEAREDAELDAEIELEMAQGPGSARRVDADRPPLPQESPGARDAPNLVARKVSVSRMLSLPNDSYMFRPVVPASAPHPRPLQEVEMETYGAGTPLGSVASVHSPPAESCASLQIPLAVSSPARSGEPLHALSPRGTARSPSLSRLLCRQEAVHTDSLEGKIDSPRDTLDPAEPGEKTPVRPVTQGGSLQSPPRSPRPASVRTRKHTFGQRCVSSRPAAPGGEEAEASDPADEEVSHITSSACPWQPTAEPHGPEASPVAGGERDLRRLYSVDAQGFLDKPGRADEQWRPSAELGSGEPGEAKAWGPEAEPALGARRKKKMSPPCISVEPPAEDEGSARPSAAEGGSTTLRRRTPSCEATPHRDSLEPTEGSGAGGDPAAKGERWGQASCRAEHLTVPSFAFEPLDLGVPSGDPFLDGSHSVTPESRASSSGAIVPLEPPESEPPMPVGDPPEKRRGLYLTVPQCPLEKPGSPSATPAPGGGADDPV

With `O=C(Nc1ccccc1)Nc1cc(Cl)cc(Cl)c1` the EC50 [1] was 10.6 µM (active), the EC50 (Streptokinase A) was 16.8 µM (active) and the EC50 (Streptococcus) was 48.6 µM (active). For the same compound, the AC50 [2] was 4.3 µM (active) and the AC50 [3] was 17.2 µM (active).

For `Cc1cc(-n2ccnc2)n2c(nc3ccccc32)c1C#N`, the IC50 (Coagulation factor XII) was > 50 µM (inactive) and the IC50 [4] was > 100 µM (active).

For `O=C(Nc1ccc(Cl)c(C(F)(F)F)c1)c1ccco1`, the EC50 [5] was 10.6 µM (active), the IC50 (Protein skinhead-1) was 45 µM (active) and the AC50 [6] was 4.01 µM (active).

In the case of `Cn1nnnc1SCC(=O)NCc1cccc(C(=O)O)c1`, the AC50 [3] is reported as 10.5 µM (active).

For `CCOC(=O)C1CCCN(C(=O)c2ccc(CS(=O)(=O)c3ccc(Br)cc3)o2)C1` (stereo not given), the IC50 [4] was > 100 µM (active).

For `CC(=O)Nc1ccc(NC(=O)Nc2ccccc2)cc1`, the IC50 (cells [7]) was > 29.9 µM (inactive) and the EC50 (cells [8]) was > 29.9 µM (inactive).

For `Cc1sc2nc3ccc(N4CCCC4)nn3c(=O)c2c1C`, the IC50 [9] was > 50 µM (not active).

With `CCCCc1cc(=O)oc2cc(C)cc(OC(C)C(=O)O)c12` (stereo not given) the AC50 [6] was 1.08 µM (active).

For `CN(C)S(=O)(=O)c1cccc(NC(=O)COC(=O)c2cccc(S(=O)(=O)N3CCc4ccccc4C3)c2)c1`, the IC50 [10] was > 69.5 µM (inactive) and the IC50 [11] was > 69.5 µM (inactive).

With `O=C1N(Cc2cccnc2)C[C@@H]2C[C@@H](c3ccc4nsnc4c3)N3CCC[C@@]123` the IC50 [4] was > 100 µM (active).

In the case of `Cc1cccc(N2CCN(C(=O)c3ccc(C[S+]([O-])Cc4ccc(Cl)cc4)o3)CC2)c1C` (stereo not given), the IC50 [10] is reported as > 69.5 µM (inactive) and the IC50 [11] is reported as > 7.72 µM (active).

With `Cn1ccnc1Sc1ccc(/C=N/NC(=O)c2ccccc2O)cc1[N+](=O)[O-]` the IC50 [4] was > 100 µM (active).

With `O=C(C[C@@H]1C=C[C@H](NC(=O)Cc2ccccn2)[C@@H](CO)O1)NCCc1ccccc1` the IC50 (cells [7]) was > 29.9 µM (inactive) and the EC50 (cells [8]) was > 29.9 µM (inactive).

With `CO[C@H]1CN(C)C(=O)c2cc(NC(=O)c3ccccc3F)ccc2OC[C@@H](C)N(C)C[C@@H]1C` the AC50 [6] was 10.6 µM (active).

For `O=C(CSc1nnc(COc2ccccc2)n1-c1ccc(Cl)cc1)Nc1ccccc1-c1ccccc1`, the IC50 [10] was > 69.5 µM (inactive) and the IC50 [11] was > 69.5 µM (inactive).

For `O=C(C/C=N\OCc1ccc([N+](=O)[O-])cc1)Nc1ccc(Cl)cc1`, the IC50 (cells [12]) was 25.5 µM (active), the IC50 [13] was 2.56 µM (active) and the IC50 [14] was 83.3 µM (inactive). For the same compound, the IC50 [15] was 1.73 µM (active).

With `O=C(CC(=O)Nc1ccc(Cl)c(Cl)c1)N/N=C/c1ccc(O)cc1` the IC50 [13] was 25.3 µM (inactive), the IC50 [14] was 83.3 µM (inactive) and the IC50 [15] was 43.9 µM (inactive). For the same compound, the IC50 [16] was 74 µM (active).
